These results are taken from PubChem BioAssay AID179 (DTP/NCI, 2004).

The test deals with CEM cells HIV-1 protection, formazan growth assay. Nature of the test: NCI AIDS Antiviral Assay. The settings on record: for pIC50: measured here: growth of uninfected CEM cells. In outline:
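Soluble formazan readout of cell growth; CEM cells ± HIV-1; 5 drug concs. ≥50% protection → retest; ≥50% again = moderately active; reproducible 100% = confirmed active.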

One may read the pEC50 as the EC50 on a negative log10 scale, so that one unit is a factor of ten. One may read the pIC50 as −log10 of the IC50, conventionally taken in molar units. Low readings indicate a high IC50, high ones a low IC50.

pEC50, pIC50: −log10 of the molar value. The source made the active and inactive calls.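 How the source made its calls: active means compounds giving half or more protection of infected cells from virus-caused growth loss, again on retest; inactive means the rest.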 Some results are limits rather than exact numbers.

In the case of `CN(C)CC1Cc2ccsc2C1=O` (configuration not stated), the pEC50 was below 3.81 and the pIC50 was 5.58. Turning to `CN=c1ss/c(=N\C(=S)N(C)C)n1C1CCCCC1`, the result was inactive. Turning to `CC(C)CCCC(C)[C@H]1CC[C@H]2[C@@H]3CC[C@H]4C[C@@H](CCC=C(c5cc(Cl)c(O)c(C(=O)OC(C)C)c5)c5cc(Cl)c(O)c(C(=O)OC(C)C)c5)CC[C@]4(C)[C@H]3CC[C@]12C` (some centres not stated), the pEC50 was 4.17 and the pIC50 was 3.82. Turning to `N#CCCN(CCC#N)C(=O)c1cccc(C(=O)N(CCC#N)CCC#N)c1`, the result was inactive.

As for `Cc1c2c(c(C)c3c[n+](C)ccc13)Oc1ccccc1O2`, the pEC50 was below 4.70 and the pIC50 was 5.43.

Turning to `COc1ccc(-c2cc[n+]([O-])c(C)c2C)c(OC)c1OC`, the pEC50 is below 3.06 and the pIC50 was 4.08. For the compound `O=C1C(Cl)N(c2ccc(Cl)cc2Cl)C1c1c[nH]c2ccccc12` (configuration not stated), the pEC50 is below 4.15 and the pIC50 is below 4.15.

With `O=Cc1[nH]c(=O)[nH]c(=O)c1CCl`, the pEC50 is below 3.70 and the pIC50 was 4.45.

The compound `O=C(O)c1ccc(-c2c3ccc(=O)cc-3oc3cc(O)ccc23)cc1` gave a pEC50 below 3.70 and a pIC50 of 3.97.

`O=C(O)c1nn(-c2ccccn2)c(O)c1N=Nc1ccc(/C=C/c2ccc(N=Nc3c(C(=O)O)nn(-c4ccccn4)c3O)cc2S(=O)(=O)O)c(S(=O)(=O)O)c1`: the pEC50 was below 4.69 and the pIC50 was below 4.69. As to `O=C1C[C@H]2[C@@H](O1)[C@@H](O)CN1C(=O)c3ccccc3[C@H]21`, the pEC50 was below 3.70 and the pIC50 is below 3.70. Take `CSc1n(CC(=O)OC(C)(C)C)nc[n+]1N`: the pEC50 is below 3.70 and the pIC50 was below 3.70. On to `CSc1ncnc2c1ncn2C1CC(Oc2ccc(C)cc2)C(COc2ccc(C)cc2)O1` (configuration not stated), for which the pEC50 was below 3.70 and the pIC50 was 4.51. Regarding `CC1CC(Nc2ccc(Br)cc2)N(C(=O)c2ccc(Br)cc2)O1` (configuration not stated), the pEC50 is below 3.70 and the pIC50 was 4.77. With `CC(=O)Oc1c(Cl)cc(C(=CCC[C@H]2CC[C@@]3(C)[C@@H](CC[C@@H]4[C@@H]3CC[C@]3(C)[C@@H](C(C)CCCC(C)C)CC[C@@H]43)C2)c2cc(Cl)c(OC(C)=O)c(C(=O)OCc3ccccc3)c2)cc1C(=O)OCc1ccccc1` (some centres not stated), the pEC50 is below 3.70 and the pIC50 was below 3.70. For `O=C(O)CN(CC(=O)O)CC(O)CN(CC(=O)O)CC(=O)O`, the pEC50 was below 3.70 and the pIC50 was 4.16. Taken in the same sequence, the figures for `Cc1ccc(C)c(NC(=O)CC2C(=O)Nc3ccccc3S2(=O)=O)c1` (configuration not stated) were below 5.39 and below 5.39. As to `O=C1CC(CC(=O)C2CCCCC2=O)CC(=O)N1` (configuration not stated), the outcome was inactive. For the compound `CC(=O)[O-].[O-]c1c(Cl)cc(Cl)cc1/C=N/Nc1ccccn1.[Zn+2]`, the outcome was inactive. As for `COC[C@H]1c2cc(O)c(OCc3ccccc3)cc2O[C@@H]1c1ccc(OC)cc1`, the pEC50 was below 3.70 and the pIC50 is 4.71. On to `O=C(O)CSC(=S)NCCNC(=S)SCC(=O)O`, for which the pEC50 is below 4.02 and the pIC50 is 4.14.

In the case of `Cc1ccc(-n2nnc3c(NNc4ccccc4)n[nH]c(=O)c32)cc1`, the pEC50 is below 3.70 and the negative-log IC50 (pIC50) is 4.59. As for `CC(=O)C1C(=O)C(C(C)=O)C2C3C=CC(C3)C12` (configuration not stated), the pEC50 was below 3.70 and the pIC50 was 4.13.

With `COc1ccc(/C=c2/sc3n(c2=O)C(c2ccccc2)C2(O)CCCCC2N=3)cc1` (configuration not stated), the pEC50 was below 3.70 and the pIC50 was below 3.70. As for `CCSc1c(S)cnn(C)c1=O`, the pEC50 was 4.63 and the pIC50 was 4.51.

`Cc1ccc(/C=N/n2c(=O)[nH]c3ccccc3c2=O)cc1`: the pEC50 was below 3.70 and the negative-log IC50 (pIC50) is below 3.70. Turning to `O=C1N=C2SCCCN2C1(c1ccccc1)c1ccccc1`, the pEC50 was below 3.70 and the negative logarithm of the IC50 (pIC50) is below 3.70. As for `O=C(O)c1cc2oc(-c3ccccc3)cc2[nH]1`, the pEC50 was below 3.66 and the pIC50 is 3.81. As to `CC1C/C(=N\N(C)C)C(C#N)(C#N)C1(C#N)C#N` (configuration not stated), the pEC50 is below 3.70 and the pIC50 was 5.22. On to `CCCCCOC(=S)S`, for which the pEC50 is below 3.70 and the pIC50 is below 3.70. With `COC(=O)C(=O)C1(CCC(C)=O)c2ccccc2-c2c(C)ccc(C)c21` (configuration not stated), the outcome was inactive.

On to `CN/N=C(/CC(=O)c1sc(NNC(C)=O)nc1C)C(=O)Nc1ccc(OC)cc1OC`, for which the pEC50 is below 4.10 and the pIC50 was below 4.10. Consider `C=CCN1C(=O)CC(=O)N(NC2=NNC3(C(=O)N2)c2ccccc2-c2ccccc23)C1=S`, for which the pEC50 was below 3.70 and the pIC50 is 4.10.

For `Cc1cc(-c2no[n+]([O-])c2-c2cc(C)sc2S(C)(=O)=O)c(S(C)(=O)=O)s1`, the pEC50 was below 3.70 and the pIC50 is below 3.70. `CCOC(=O)c1nnc2sc(-c3ccccc3)nn12`: the pEC50 is 4.23 and the pIC50 is 3.72. Consider `O=[N+]([O-])c1ccc(-n2nnc(C3=NCCN3)c2-c2ccc(Cl)cc2)cc1`, for which the pEC50 was below 3.87 and the pIC50 was below 3.87.

For the compound `Cc1ccc2c(c1)C(c1cccc3ccccc13)OC2=O` (configuration not stated), the outcome was inactive. Take `COC(=O)CCC(C)C1CCC2[C@@H]3CC[C@@H]4CC(CSC(C)=O)CC[C@]4(C)C3CC[C@]12C` (some centres not stated): the pEC50 is below 4.53 and the pIC50 was below 4.53. Take `[O-][n+]1nc(N2CCOCC2)nc2ccccc21`: the pEC50 is below 3.70 and the pIC50 is below 3.70. As to `Cc1cccc2c1CC(C1OC(=O)c3c(C)cccc31)C2=O` (configuration not stated), the pEC50 is below 3.70 and the pIC50 is 3.92.

In the case of `COC(=O)c1c(C#C[Si](C)(C)C)c(C#C[Si](C)(C)C)c(C#C[Si](C)(C)C)c(C#C[Si](C)(C)C)c1C(=O)OC`, the pEC50 was below 4.30 and the pIC50 was below 4.30. Take `Cc1cc2c(c(C(=O)NCC(=O)O)c1)Oc1c(cc(C)cc1C(=O)NCC(=O)O)S2`: the pEC50 is below 3.70 and the pIC50 was below 3.70.

On to `CC1(C)OCC(C)(C)C(O)C1=O` (configuration not stated), for which the pEC50 is below 2.84 and the pIC50 is 3.01. Consider `NCCCN1CCN(CC(=O)O)CCN(CCCN)CCN(CC(=O)O)CC1`, for which the pEC50 is below 3.70 and the pIC50 is 5.36. In the case of `COc1cc(OC)c(-c2oc3ccccc3c(=O)c2O)c(OC)c1`, the outcome was inactive. As for `C1=Cc2cccc3occ(c23)C=C1`, the pEC50 was below 3.70 and the pIC50 was 4.54.

`Cc1ccc(S(=O)(=O)N/N=C2\C3CC4CC(C3)C2C4)cc1` (configuration not stated): the pEC50 is below 3.70 and the pIC50 is 4.02.

Turning to `C[N+]12CCCCC1C(COc1cccc3cccnc13)CCC2` (configuration not stated), the pEC50 is below 3.70 and the pIC50 was 3.93. For the compound `Cc1occc1C(=S)Nc1ccc(Cl)c(/C=N/OC(C)(C)C)c1`, the pEC50 is 6.71 and the pIC50 was 4.83.

Take `CCCC(C(=O)OCC)N1C(=O)c2ccccc2S1(=O)=O` (configuration not stated): the pEC50 is below 3.70 and the pIC50 was 3.83. Regarding `CCOC(=O)c1ccc(CS(=O)(=O)c2ccc([N+](=O)[O-])cc2)c([N+](=O)[O-])c1`, the pEC50 was below 4.04 and the pIC50 was 4.22.

As for `CC(=O)Nc1c(C(=N)C#N)ncn1CCO`, the pEC50 is below 3.70 and the pIC50 was below 3.70.
